# Reference: ChEMBL document CHEMBL3046822, “Synthesis, antiplatelet aggregation activity, and molecular modeling study of novel substituted-piperazine analogues” (2011)
# The source made the active and inactive calls. No cut-off for these calls is given here.
# What was measured:
# [1] = system: Platelet; assay: Antiaggregating activity in Homo sapiens (human) platelet rich plasma assessed as inhibition of arachidonic acid-induced platelet aggregation at 0.5 uM incubated for 4 min prior to arachidonic acid-induction measured for 5.5 min by turbidometric analysis; format: functional
# [2] = system: Platelet; assay: Antiaggregating activity in Homo sapiens (human) platelet rich plasma assessed as inhibition of arachidonic acid-induced platelet aggregation at 1 uM incubated for 4 min prior to arachidonic acid-induction measured for 5.5 min by turbidometric analysis; format: functional, cell-free
# [3] = system: Platelet; assay: Antiaggregating activity in Homo sapiens (human) platelet rich plasma assessed as inhibition of adrenaline-induced platelet aggregation at 0.4 uM incubated for 4 min prior to adrenaline-induction measured for 5.5 min by turbidometric analysis; format: functional, cell-free
# [4] = system: Platelet; assay: Antiaggregating activity in Homo sapiens (human) platelet rich plasma assessed as inhibition of adrenaline-induced platelet aggregation at 0.5 uM incubated for 4 min prior to adrenaline-induction measured for 5.5 min by turbidometric analysis; format: functional, cell-free
# [5] = system: Platelet; assay: Antiaggregating activity in Homo sapiens (human) platelet rich plasma assessed as inhibition of adrenaline-induced platelet aggregation at 1 uM incubated for 4 min prior to adrenaline-induction measured for 5.5 min by turbidometric analysis; format: functional, cell-free
# [6] = Antiaggregating activity in Homo sapiens (human) platelet rich plasma assessed as ristocetin-induced platelet aggregation at 0.4 uM incubated for 4 min prior to ristocetin-induction measured for 5.5 min by turbidometric analysis (reference value: 65 to 99%); format: functional
# [7] = Antiaggregating activity in Homo sapiens (human) platelet rich plasma assessed as ristocetin-induced platelet aggregation at 0.5 uM incubated for 4 min prior to ristocetin-induction measured for 5.5 min by turbidometric analysis (reference value: 65 to 99%); format: functional
# [8] = Antiaggregating activity in human platelet rich plasma assessed as disaggregation of ristocetin-induced platelet aggregation at 1 uM incubated for 4 min prior to ristocetin-induction measured for 5.5 min by turbidometric analysis relative to control; format: functional
# [9] = system: Platelet; assay: Antiaggregating activity in Homo sapiens (human) platelet rich plasma assessed as inhibition of ADP-induced platelet aggregation at 0.4 uM incubated for 4 min prior to ADP-induction measured for 5.5 min by turbidometric analysis; format: functional, cell-free
# [10] = system: Platelet; assay: Antiaggregating activity in Homo sapiens (human) platelet rich plasma assessed as inhibition of ADP-induced platelet aggregation at 0.5 uM incubated for 4 min prior to ADP-induction measured for 5.5 min by turbidometric analysis; format: functional, cell-free
# [11] = system: Platelet; assay: Antiaggregating activity in Homo sapiens (human) platelet rich plasma assessed as inhibition of ADP-induced platelet aggregation at 1 uM incubated for 4 min prior to ADP-induction measured for 5.5 min by turbidometric analysis; format: functional, cell-free
# [12] = system: Platelet; assay: Antiaggregating activity in Homo sapiens (human) platelet rich plasma assessed as inhibition of collagen-induced platelet aggregation at 0.4 uM incubated for 4 min prior to collagen-induction measured for 5.5 min by turbidometric analysis; format: functional, cell-free
# [13] = system: Platelet; assay: Antiaggregating activity in Homo sapiens (human) platelet rich plasma assessed as inhibition of collagen-induced platelet aggregation at 0.5 uM incubated for 4 min prior to collagen-induction measured for 5.5 min by turbidometric analysis; format: functional, cell-free
# [14] = system: Platelet; assay: Antiaggregating activity in Homo sapiens (human) platelet rich plasma assessed as inhibition of collagen-induced platelet aggregation at 1 uM incubated for 4 min prior to collagen-induction measured for 5.5 min by turbidometric analysis; format: functional, cell-free
# [15] = system: Platelet; assay: Antiaggregating activity in Homo sapiens (human) platelet rich plasma assessed as inhibition of arachidonic acid-induced platelet aggregation at 0.4 uM incubated for 4 min prior to arachidonic acid-induction measured for 5.5 min by turbidometric analysis; format: functional, cell-free
smiles,measurement,setting,value
Cl.O=C(c1cccnc1)N1CCN(c2ccccc2Cl)CC1,inhibition,[1],Active
same,inhibition,[2],Active
same,inhibition,[3],Active
same,inhibition,[4],Active
same,inhibition,[5],Active
same,Activity,[6],77%
same,Activity,[7],71%
same,Activity,[8],23%
same,inhibition,[9],Active
same,inhibition,[10],Active
same,inhibition,[11],Active
same,inhibition,[12],Active
same,inhibition,[13],Active
same,inhibition,[14],Active
same,inhibition,[15],Active
